Test results reported in US20260355169A1, “METHODS OF TREATING CANCERS USING ISOQUINOLINE OR 6-AZA-QUINOLINE DERIVATIVES” (Black Diamond Therapeutics, Inc., priority 2022, published 2026).

system: BaF3 BRAF-KIAA1549 fusion cells; assay: BaF3 BRAF-KIAA1549 fusion cell proliferation assay; assay type: cell-based; settings: Mus musculus, BaF3, 96 h, read-out: IC50, inhibition of cell growth, BaF3-BRAF:KIAA1549 Fusion
Procedure: Retroviral Production: The BRAF-KIAA1549 fusion mutant was subcloned into pMXs-IRES-Blasticidin (RTV-016, Cell Biolabs, San Diego, CA). […]. Briefly, HEK 293T cells were plated in Poly-D-lysine coated 6-well plate (2.5×10^5 cells per well) and incubated overnight. The next day, retroviral plasmids (1 μg of BRAF-KIAA fusion mutant, 0.32 μg of pCMV-Gag-Pol and 0.165 μg pCMV-VSV-G) were mixed in 300 μL of Optimem (31985, Life Technologies). The mixture was incubated at room temperature for 5 minutes and then added to Optimem containing transfection reagent Lipofectamine (11668, Invitrogen) and incubated for 20 minutes. The mixture was then added dropwise to HEK 293T cells. The next day the medium was replaced with fresh culture medium and retrovirus was harvested at 24 hours.
Generation of BRAF-KIAA1549 fusion stable cell line: BaF3 cells were plated in V-bottom 96 well plate (COSTAR #3894) in 80 μL of RPMI/10% FBS and 0.01 ng/mL mouse IL-3, supplemented with 8 μg/mL polybrene (4×10^4 cells/well). Cells were transduced with 20 μL of BRAF-KIAA1549 fusion viral supernatant by centrifuging for 30 minutes at 1000 rpm. Cells were placed in a 37 °C incubator overnight. Next day 100 μL of RPMI/10% FBS and 0.01 ng/mL mouse IL-3 was added. After 24 hours, 100 μL of cells were transferred to a 24 well plate containing 900 μL of RPMI/10% FBS and 15 μg/mL Blasticidin. Contents of the 24 well plate were sampled for cell viability via CellTiterGlo (Promega) over a 2-week period.
Assay for cell proliferation: BaF3 BRAF-KIAA1549 fusion cells were resuspended at 1.5×10^5 c/mL in RPMI containing 10% Heat Inactivated FBS, 1% L-glutamine and dispensed in duplicate ([…]) into 384 well plates. To determine the effect of compound on cell proliferation, BaF3 BRAF-KIAA1549 fusion cells were incubated for 96 hours in the presence of vehicle control (DMSO) or compound at varying concentrations. Inhibition of cell growth was determined by luminescent quantification (Envision by Perkin Elmer) of intracellular ATP content using CellTiterGlo (Promega), according to the protocol provided by the manufacturer. To determine the IC50 values, the vehicle-treated cells were normalized as viable cells and analyzed using the CDD Vault, Collaborative Drug Discovery, Burlingame, CA (the Levenberg-Marquardt algorithm; Levenberg, K, […]; Marquardt, D., 1963).
Table A assigns each compound a code for potency in the BaF3 BRAF-KIAA1549 fusion cell proliferation assay: A, B, C, or D. According to the code, A represents an IC50 value<20 nM; B represents an IC50 value≥20 nM and <100 nM; C represents an IC50 value≥100 nM and <500 nM; and D represents an IC50 value≥500 nM.

IC50 [µM] | SMILES
< 0.02 | CNc1cc2ncc(-c3cc(NC(=O)c4cc(C(F)(F)F)ccn4)ccc3C)cc2cn1 [compound 1]
0.02 to 0.1 | CNc1cc2ncc(-c3cc(NC(=O)c4ccnc(C(F)(F)F)c4)ccc3C)cc2cn1 [compound 2]
< 0.02 | CNc1cc2ncc(-c3cc(NC(=O)c4cncc(C(F)(F)F)c4)ccc3C)cc2cn1 [compound 3]
< 0.02 | CNc1cc2ncc(-c3cc(NC(=O)c4cccc(N(C)C)c4)ccc3C)cc2cn1 [compound 4]
0.02 to 0.1 | CNc1cc2ncc(-c3cc(NC(=O)c4cc(C(F)(F)F)c(C)cn4)ccc3C)cc2cn1 [compound 5]
< 0.02 | CNc1cc2ncc(-c3cc(NC(=O)c4nccc(C(F)(F)F)c4Cl)ccc3C)cc2cn1 [compound 6]
< 0.02 | CNc1cc2ncc(-c3cc(NC(=O)C[C@@H]4C[C@H](C(F)(F)F)CCO4)ccc3C)cc2cn1 [compound 7]
0.02 to 0.1 | CNc1cc2ncc(-c3cc(NC(=O)c4ccnc(C(F)F)c4)ccc3C)cc2cn1 [compound 8]
< 0.02 | CNc1cc2ncc(-c3cc(NC(=O)c4ccnc(C(C)(F)F)c4)ccc3C)cc2cn1 [compound 9]
< 0.02 | CNc1cc2ncc(-c3cc(NC(=O)c4ccnc(C(C)(C)F)c4)ccc3C)cc2cn1 [compound 10]
0.02 to 0.1 | CNc1cc2ncc(-c3cc(NC(=O)c4cc(C(F)F)ccn4)ccc3C)cc2cn1 [compound 11]
0.02 to 0.1 | CNc1cc2ncc(-c3cc(NC(=O)c4cc(C(C)(F)F)ccn4)ccc3C)cc2cn1 [compound 12]
0.1 to 0.5 | CNc1cc2ncc(-c3cc(NC(=O)c4cc(C(C)(C)F)ccn4)ccc3C)cc2cn1 [compound 13]
< 0.02 | CNc1cc2ncc(-c3cc(NC(=O)c4cc(C(C)(C)C#N)ccn4)ccc3C)cc2cn1 [compound 14]
0.02 to 0.1 | CNc1cc2ncc(-c3cc(NC(=O)c4cc(C5(C#N)CCC5)ccn4)ccc3C)cc2cn1 [compound 15]
< 0.02 | CNc1cc2ncc(-c3cc(NC(=O)c4cc(C5(C#N)CC5)ccn4)ccc3C)cc2cn1 [compound 16]
< 0.02 | CNc1cc2ncc(-c3cc(NC(=O)c4ccnc(C5CC(F)(F)C5)c4)ccc3C)cc2cn1 [compound 17]
< 0.02 | CNc1cc2ncc(-c3cc(NC(=O)c4ccnc(C5(F)CC5)c4)ccc3C)cc2cn1 [compound 18]
< 0.02 | CNc1cc2ncc(-c3cc(NC(=O)c4cccc(N(C)C)c4)cnc3C)cc2cn1 [compound 19]
< 0.02 | CNc1cc2ncc(-c3cc(NC(=O)c4cc(C(F)(F)F)ccn4)cnc3C)cc2cn1 [compound 20]
0.02 to 0.1 | CNc1cc2ncc(-c3cc(NC(=O)c4cncc(C(F)(F)F)c4)cnc3C)cc2cn1 [compound 21]

IC50 [µM] | SMILES
0.02 to 0.1 | CNc1cc2ncc(-c3cc(NC(=O)c4cc(C(F)F)ccn4)cnc3C)cc2cn1 [compound 22]
0.02 to 0.1 | CNc1cc2ncc(-c3cc(NC(=O)c4cc(C(C)(F)F)ccn4)cnc3C)cc2cn1 [compound 23]
< 0.02 | CNc1cc2ncc(-c3cc(NC(=O)c4ccnc(C(C)(C)F)c4)cnc3C)cc2cn1 [compound 24]
0.02 to 0.1 | CNc1cc2ncc(-c3cc(NC(=O)c4cc(C(F)(F)F)c(C)cn4)cnc3C)cc2cn1 [compound 25]
0.02 to 0.1 | CNc1cc2ncc(-c3cc(NC(=O)c4nccc(C(F)(F)F)c4Cl)cnc3C)cc2cn1 [compound 26]
< 0.02 | CNc1cc2ncc(-c3cc(NC(=O)c4ccnc(C(F)(F)F)c4)cnc3C)cc2cn1 [compound 27]
0.1 to 0.5 | CNc1cc2ncc(-c3cc(NC(=O)c4ccnc(C(F)F)c4)cnc3C)cc2cn1 [compound 28]
< 0.02 | CNc1cc2ncc(-c3cc(NC(=O)c4ccnc(C(C)(F)F)c4)cnc3C)cc2cn1 [compound 29]
0.02 to 0.1 | CNc1cc2ncc(-c3cc(NC(=O)c4cc(C(C)(C)C#N)ccn4)cnc3C)cc2cn1 [compound 30]
0.02 to 0.1 | CNc1cc2ncc(-c3cc(NC(=O)c4cc(C5(C#N)CCC5)ccn4)cnc3C)cc2cn1 [compound 31]
< 0.02 | CNc1cc2ncc(-c3cc(NC(=O)c4cc(C5(C#N)CC5)ccn4)cnc3C)cc2cn1 [compound 32]
< 0.02 | CNc1cc2ncc(-c3cc(NC(=O)c4ccnc(C5(F)CC5)c4)cnc3C)cc2cn1 [compound 33]
0.02 to 0.1 | CNc1cc2ncc(-c3cc(NC(=O)c4ccnc(C5CC(F)(F)C5)c4)cnc3C)cc2cn1 [compound 34]
0.02 to 0.1 | CNc1cc2ncc(-c3cc(NC(=O)C[C@@H]4C[C@H](C(F)(F)F)CCO4)cnc3C)cc2cn1 [compound 35]
0.1 to 0.5 | CNc1cc2ncc(-c3cc(NC(=O)C[C@H]4C[C@H](C(F)(F)F)CCO4)cnc3C)cc2cn1 [compound 36]
0.02 to 0.1 | CNc1cc2ncc(-c3cc(NC(=O)c4cc(C(C)(C)C#N)ccn4)c(F)cc3Cl)cc2cn1 [compound 37]
0.02 to 0.1 | CNc1cc2ncc(-c3cc(NC(=O)c4cc(C(C)(C)C#N)ccn4)cc(F)c3C)cc2cn1 [compound 38]
0.02 to 0.1 | CNc1cc2ncc(-c3cc(NC(=O)c4cc(C(C)(C)C#N)ccn4)cc(F)c3F)cc2cn1 [compound 39]
0.02 to 0.1 | CNc1cc2ncc(-c3cc(NC(=O)c4cc(C(C)(C)C#N)ccn4)ccc3F)cc2cn1 [compound 40]
0.02 to 0.1 | CNc1cc2ncc(-c3cc(NC(=O)c4cc(C(C)(C)C#N)ccn4)ccc3Cl)cc2cn1 [compound 41]
0.02 to 0.1 | CNc1cc2ncc(-c3cc(NC(=O)c4cc(C(C)(C)C#N)ccn4)c(F)cc3C)cc2cn1 [compound 42]

IC50 [µM] | SMILES
0.02 to 0.1 | CNc1cc2ncc(-c3cc(NC(=O)c4cc(C(C)(C)C#N)ccn4)c(F)cc3F)cc2cn1 [compound 43]
0.02 to 0.1 | CNc1cc2ncc(-c3cc(NC(=O)c4cc(C(C)(C)C#N)ccn4)cc(F)c3Cl)cc2cn1 [compound 44]
0.1 to 0.5 | CNc1cc2ncc(-c3ccc(F)c(NC(=O)c4cc(C(C)(C)C#N)ccn4)c3)cc2cn1 [compound 45]
0.1 to 0.5 | CNc1cc2ncc(-c3cc(F)c(F)c(NC(=O)c4cc(C(C)(C)C#N)ccn4)c3)cc2cn1 [compound 46]
0.1 to 0.5 | CNc1cc2ncc(-c3cc(F)cc(NC(=O)c4cc(C(C)(C)C#N)ccn4)c3)cc2cn1 [compound 47]
> 0.5 | CNc1cc2ncc(-c3cc(NC(=O)c4cc(C(C)(C)C#N)ccn4)cc(Cl)c3C)cc2cn1 [compound 48]
< 0.02 | CNc1cc2ncc(-c3cc(NC(=O)c4cc(C(C)(C)C#N)ccn4)cnn3)cc2cn1 [compound 49]
0.1 to 0.5 | CNc1cc2ncc(-c3cc(NC(=O)c4cc(C(C)(C)C#N)ccn4)c(Cl)cc3C)cc2cn1 [compound 50]
> 0.5 | CNc1cc2ncc(-c3cc(NC(=O)c4cc(C(C)(C)C#N)ccn4)c(F)c(F)c3C)cc2cn1 [compound 51]
< 0.02 | CNc1cc2ncc(-c3cc(NC(=O)c4nccc(C(F)(F)F)c4F)cnc3C)cc2cn1 [compound 52]
0.02 to 0.1 | CNc1cc2ncc(-c3cc(C(=O)Nc4cc(C(C)(C)C#N)ccn4)ccc3C)cc2cn1 [compound 53]
< 0.02 | CNc1cc2ncc(-c3cc(NC(=O)c4ccnc(C(C)(C)C#N)c4)cnc3C)cc2cn1 [compound 55]
0.02 to 0.1 | CNc1cc2ncc(-c3cc(NC(=O)c4ccnc(C(C)(C)C#N)c4)ccc3C)cc2cn1 [compound 56]
< 0.02 | CNc1cc2ncc(-c3cc(NC(=O)c4ccnc(C(C)C)c4)cnc3C)cc2cn1 [compound 57]
0.02 to 0.1 | CNc1ncc2cc(-c3cc(NC(=O)c4ccnc(C(C)(C)C)c4)cnc3C)cnc2n1 [compound 58]
0.02 to 0.1 | CNc1cc2ncc(-c3cc(C(=O)Nc4cc(C(C)(C)C#N)ccn4)cnc3C)cc2cn1 [compound 59]
< 0.02 | CNc1cc2ncc(-c3cc(NC(=O)c4cc(C(F)(F)F)c(F)cn4)cnc3C)cc2cn1 [compound 60]
0.1 to 0.5 | CNc1cc2ncc(-c3cc(NC(=N)c4cc(C(F)(F)F)ccn4)ccc3C)cc2cn1 [compound 61]
0.02 to 0.1 | CNc1cc2ncc(-c3cc(NC(=O)CN4CCC[C@H](C(F)(F)F)C4)cnc3C)cc2cn1 [compound 62]
0.02 to 0.1 | CNc1cc2ncc(-c3cc(NC(=O)CN4CCC[C@H](C(F)(F)F)C4)ccc3C)cc2cn1 [compound 63]
> 0.5 | CNc1cc2ncc(-c3cc(NC(=N)c4cc(C(F)(F)F)ccn4)cnc3C)cc2cn1 [compound 64]
